Laboratory results reported in PubChem BioAssay (NCI).
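Briefly, cells in 96-well plates were exposed to five compound concentrations for 48 h, and endpoints were estimated by linear interpolation. Here, GI50 denotes the concentration required for 50% inhibition of growth. TGI marks complete inhibition of growth.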

Assays:
Test in all cases: NCI anticancer screen, dose series, 48 h
PC-3 prostate = system: PC-3 prostate
HOP-62 NSCLC = system: HOP-62 NSCLC
BT-549 breast = system: BT-549 breast
SW-620 colon = system: SW-620 colon
MDA-MB-231 breast = system: MDA-MB-231 breast
NCI-H522 lung = system: NCI-H522 lung
786-0 renal = system: 786-0 renal
COLO 205 colon = system: COLO 205 colon
SN12C renal = system: SN12C renal
NCI-H23 lung = system: NCI-H23 lung

Compound | GI50 (PC-3 prostate) [nM] | TGI (PC-3 prostate) [nM] | GI50 (HOP-62 NSCLC) [nM] | TGI (HOP-62 NSCLC) [nM] | GI50 (BT-549 breast) [nM] | TGI (BT-549 breast) [nM] | GI50 (SW-620 colon) [nM] | TGI (SW-620 colon) [nM] | GI50 (MDA-MB-231 breast) [nM] | TGI (MDA-MB-231 breast) [nM] | GI50 (NCI-H522 lung) [nM] | TGI (NCI-H522 lung) [nM] | GI50 (786-0 renal) [nM] | TGI (786-0 renal) [nM] | GI50 (COLO 205 colon) [nM] | TGI (COLO 205 colon) [nM] | GI50 (SN12C renal) [nM] | TGI (SN12C renal) [nM] | GI50 (NCI-H23 lung) [nM] | TGI (NCI-H23 lung) [nM]
NC(=S)N/N=C\c1nccc2c(N)cccc12 | 452 | > 100000 | 352 | > 22000 | 836 | > 100000 | 476 | > 100000 | 471 | > 100000 | 178 | 509 | 163 | 737 | 1090 | > 100000 | 314 | > 39500 | 224 | > 94800
Cc1cc(C)c2c(SCc3ccc(Cl)cc3Cl)nc(N)nc2n1 |  | > 100000 |  | > 100000 |  | > 100000 |  | > 100000 |  | > 100000 |  | 57100 |  | 41800 |  | > 100000 |  | 60700 |  | > 100000
CNC(=O)OC1C(O[C@H]2C[C@H]3[C@@H]4CC=C5C[C@@H](O)CC[C@]5(C)[C@H]4CC[C@]3(C)[C@H]2[C@H](C)C(=O)CCC(C)C)OCC(O)C1OC1OCC(O)C(O)C1OC(=O)c1ccc(OC)cc1 (stereo not given in full) | 10 | 447 | 22.5 | 2850 | < 2.75 | 3490 | 12.2 | 383 | 103 | 4620 | 31.4 | 271 | 3.41 | 652 | 57.9 | 361 | 2640 | 6830 | 134 | 4590
C/C1=C/C(=O)O[C@@H]2C[C@@H](CC[C@H](C)/C=C\C=C\CC1)O[C@@](OCCc1ccccc1)([C@@H]1CSC(=O)N1)C2 | 75.4 | > 17500 | 77.7 | > 17500 | 40.4 | 113 | 7040 | > 17500 | 94.9 | > 17500 | 58.1 | 2470 | 107 | > 17500 | 84.5 | 401 | 78.7 | > 17500 | 142 | > 17500
O=c1c2ccccc2nc(-c2ccccc2)n1O |  | > 100000 |  | 37400 |  | > 100000 |  | > 100000 |  | > 100000 |  | > 100000 |  | > 100000 |  | > 100000 |  | > 100000 |  | > 100000
Oc1c(I)cc(-c2nc3ccccc3s2)cc1CN(Cc1ccccn1)Cc1ccccn1 | 308 | > 100000 | 332 | 68300 | 394 | 29800 | 402 | 3320 | 217 | 10400 | 415 | 14400 | 347 | 2620 | 352 | 20700 | 446 | 11600 | 866 | > 100000
COc1ccc(CC(NC(=O)[C@H](C)NC(=O)CN2CCOCC2)C(=O)N[C@@H](Cc2ccccc2)C(=O)[C@@]2(C)CO2)cc1 (stereo not given in full) | 229 | 631 | 191 | 453 | 154 | 391 | 216 | 734 | 240 | 1100 | 278 | 908 | 364 | 1760 | 308 | 933 | 263 | 1530 | 196 | 695
OCC#Cc1ccccc1C#Cc1ccc(C#Cc2ccccc2C#CCO)s1 | 14800 | 28700 | 22600 | 53700 | 16800 | 33800 | 18400 | 37300 | 18900 | 53500 | 11700 | 29200 | 19300 | 37700 | 17900 | 48500 | 20100 | 43000 | 18300 | 33400
COc1cc2cc(Oc3ccc(NC(=O)Nc4ccc(Cl)c(C(F)(F)F)c4)cc3)c(C)nc2cc1OC | 781 | 2960 | 1300 | 5320 | 981 | 4590 | 1250 | 4570 | 681 | 1840 | 773 | 2650 | 1170 | 4960 | 660 | 1310 | 1310 | 6120 | 991 | 3790
C[C@]12C3CC[C@@]4(CO)C[C@]3(CCC1[C@](C)(C(=O)O)CC[C@@H]2O)CC4=O (stereo not given in full) | > 100000 | > 100000 | > 100000 | > 100000 | > 100000 | > 100000 | > 100000 | > 100000 | > 100000 | > 100000 | > 100000 | > 100000 | > 100000 | > 100000 | > 100000 | > 100000 | > 100000 | > 100000 | > 100000 | > 100000
